Legend:
[1] = biological target: CB1 (Mus musculus, UniProt P47746); details: exogenous administration; cited from earlier work
[2] = test system: rodents, models of inflammatory pain; details: systemic delivery; cited from earlier work
[3] = test system: rats following ligation of spinal nerves; details: local (subcutaneous) or systemic administration; cited from earlier work
[4] = biological target: T1, human CB2 receptor (Homo sapiens, UniProt P34972); test: GPCR signaling assay, recombinant human CB2; format: cell-based
[5] = biological target: T2, recombinant CB2 receptors (dog) (Canis lupus familiaris, UniProt E2RKA3); test: GPCR signaling assay, recombinant dog CB2; format: cell-based; details: GPCR signaling assays, recombinant receptor
T2 construct: other: GPCR signaling assays, recombinant receptor
Experimental: (§1) The binding affinity, potency, and selectivity of Compound A for recombinant CB2 receptors were determined using radioligand binding assays and GPCR signaling assays.

[6] = test system: Sprague Dawley rats, acetic acid-induced writhing; test: Acetic acid-induced writhing model of visceral pain; format: in vivo, rat; details: 3, 10, 30 mg/kg PO, acetic acid 1.5% IP; FIGS. 11 and 12
Experimental: Writhing is induced in male Sprague Dawley rats by administering glacial acetic acid (1.5%) intraperitoneally (IP). […] On test day, rats are placed in observation cages and administered compound according to the schedules in Tables D, F, H, and J. Treatment groups are as provided in Tables E, G, I, and K.
Studies are performed to evaluate single dose assessment (Tables D and E), maintenance of efficacy after repeated administration (Tables F and G), antagonist interactions (Tables H and I), and dose response (Tables J and K).
Writhing behavior is scored for 30 minutes in five-minute time bins.
Writhing behavior was evaluated 20 minutes later and recorded for 30 minutes (in five-minute bins).

[7] = biological target: T3, recombinant CB2 receptors (rat) (Rattus norvegicus, UniProt Q9QZN9); test: GPCR signaling assay, recombinant rat CB2; format: cell-based; details: GPCR signaling assays, recombinant receptor
T3 sequence (Q9QZN9 1-360): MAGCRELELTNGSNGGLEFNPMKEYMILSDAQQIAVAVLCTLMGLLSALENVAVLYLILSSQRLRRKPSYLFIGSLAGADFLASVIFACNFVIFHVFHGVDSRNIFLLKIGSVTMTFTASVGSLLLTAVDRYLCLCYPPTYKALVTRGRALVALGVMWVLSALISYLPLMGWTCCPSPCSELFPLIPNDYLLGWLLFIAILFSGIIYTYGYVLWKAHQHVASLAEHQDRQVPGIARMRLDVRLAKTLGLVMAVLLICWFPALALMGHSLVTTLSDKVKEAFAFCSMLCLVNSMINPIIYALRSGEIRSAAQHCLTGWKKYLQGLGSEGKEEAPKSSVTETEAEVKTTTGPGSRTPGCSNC
Experimental: as §1

[8] = test system: male Sprague-Dawley rats, STZ-induced PDPN; test: Streptozotocin-induced painful diabetic peripheral neuropathy (PDPN) model; format: in vivo, rat; details: 10 mg/kg orally in 0.5% methylcellulose; 1, 4 and 6 hours post-dosing; FIG. 9, FIG. 10
Experimental: Male Sprague-Dawley rats were injected intraperitoneally with 50 mg/kg of streptozotocin (STZ) in sodium citrate buffer. 10% sucrose water was provided ad libitum for the first 48 hours post-STZ followed by regular drinking water. Rats were monitored once weekly for blood glucose levels and body weights. Development of tactile allodynia over time was analyzed using Von Frey filaments and a 50% withdrawal threshold was determined using Dixon's up-down procedure. […] Tactile allodynia was evaluated at 1, 4 and 6 hours post-dosing.

[9] = biological target: T4, hCB1 (Homo sapiens, UniProt P21554); test: Interaction with recombinant human CB1; details: test concentrations up to 10 μM
[10] = test system: rats with TNBS-induced colitis and healthy rats; test: Visceral pain model of colitis: visceromotor response to colorectal distension after TNBS; format: in vivo, rat
Experimental: Rats with active colitis display allodynia and hyperalgesia to colorectal distension following the administration of trinitrobenzene sulfonic acid (TNBS).
Abdominal electromyographic (EMG) electrode implantation is followed by measurement of visceromotor response (VMR) at 0, 20, 40, 60, and 80 mmHg of colorectal distention on day 4. The effect of each treatment on colonic compliance is also determined.
Abdominal EMG electrode implantation is followed by measurement of VMR at 0, 20, 40, 60, and 80 mmHg of colorectal distention on day 4. The effect of each treatment on colonic compliance is also determined.

[11] = test system: recombinant dog CB1 receptors; test: Interaction with recombinant dog CB1; details: test concentrations up to 10 μM
[12] = biological target: recombinant rat CB1 receptors (Rattus norvegicus, UniProt P20272); test: Interaction with recombinant rat CB1; details: test concentrations up to 10 μM
[13] = test system: capsaicin-induced hyperalgesia and allodynia; details: topical administration, humans; cited from earlier work
[14] = biological target: T1, human CB2 receptor; test: Radioligand binding assay, hCB2; parameters: 93-0164 (CHO-K1 EA-Arrestin parental line); host or cells: CHO-K1 EA-Arrestin, clone #61; details: Table C
Experimental: Preparation of Membranes: HTEK293 cells stably expressing human CB2 receptor were collected, washed in ice cold PBS, and centrifuged at 48,000×g for 20 min at 4° C. The cell pellet was then collected, resuspended in wash buffer (20 mM HEPES, pH 7.4 and 1 mM EDTA), homogenized on ice using a Brinkman Polytron, and centrifuged at 48,000×g for 20 min at 4° C. The resultant pellet was resuspended in ice cold 20 mM HEPES, pH 7.4, homogenized again on ice, recentrifuged for 20 min at 4° C., and membrane pellets were then stored at −80° C. until needed.
[^3H]CP55,940 and [^3H]WIN55,212-2 Radioligand Binding Assays: Radioligand binding assays for human CB2 receptors were performed using two different agonist radioligands, [^3H]CP55,940 and [^3H]WIN55,212-2 and similar assay conditions. For both assays, nonspecific binding was determined in the presence of 10 mM unlabeled compound. […] Then, 25 μL of BetaScint scintillation cocktail was added to each well, and plates were read in a Packard TopCount scintillation counter.

[15] = biological target: T4, hCB1; test: Radioligand binding assay, hCB1; details: Table C

T4 sequence (P21554 whole entry): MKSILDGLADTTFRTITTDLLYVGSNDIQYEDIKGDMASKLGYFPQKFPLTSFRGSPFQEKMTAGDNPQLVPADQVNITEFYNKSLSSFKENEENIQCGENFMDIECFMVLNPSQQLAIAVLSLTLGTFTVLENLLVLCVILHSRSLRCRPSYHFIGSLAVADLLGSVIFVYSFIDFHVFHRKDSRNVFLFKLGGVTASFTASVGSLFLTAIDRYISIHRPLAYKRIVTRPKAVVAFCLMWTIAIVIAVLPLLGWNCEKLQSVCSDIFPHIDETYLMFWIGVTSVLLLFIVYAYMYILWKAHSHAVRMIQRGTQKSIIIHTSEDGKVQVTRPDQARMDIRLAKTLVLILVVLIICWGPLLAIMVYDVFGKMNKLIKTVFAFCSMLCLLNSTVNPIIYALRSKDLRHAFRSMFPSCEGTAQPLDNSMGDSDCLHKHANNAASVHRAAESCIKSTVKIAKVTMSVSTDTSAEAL
T1 sequence (P34972 whole entry): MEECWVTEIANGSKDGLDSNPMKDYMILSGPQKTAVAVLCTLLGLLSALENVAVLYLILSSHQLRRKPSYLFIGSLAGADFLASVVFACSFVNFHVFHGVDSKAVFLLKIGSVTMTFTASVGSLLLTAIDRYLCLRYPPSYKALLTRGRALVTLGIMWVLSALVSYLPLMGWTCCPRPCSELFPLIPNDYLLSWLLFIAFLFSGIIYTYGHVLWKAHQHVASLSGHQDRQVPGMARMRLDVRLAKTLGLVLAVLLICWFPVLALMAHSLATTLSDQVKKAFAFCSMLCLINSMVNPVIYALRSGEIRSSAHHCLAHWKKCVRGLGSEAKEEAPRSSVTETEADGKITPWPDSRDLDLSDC
Chain of recombinant rat CB1 receptors (P20272 whole entry): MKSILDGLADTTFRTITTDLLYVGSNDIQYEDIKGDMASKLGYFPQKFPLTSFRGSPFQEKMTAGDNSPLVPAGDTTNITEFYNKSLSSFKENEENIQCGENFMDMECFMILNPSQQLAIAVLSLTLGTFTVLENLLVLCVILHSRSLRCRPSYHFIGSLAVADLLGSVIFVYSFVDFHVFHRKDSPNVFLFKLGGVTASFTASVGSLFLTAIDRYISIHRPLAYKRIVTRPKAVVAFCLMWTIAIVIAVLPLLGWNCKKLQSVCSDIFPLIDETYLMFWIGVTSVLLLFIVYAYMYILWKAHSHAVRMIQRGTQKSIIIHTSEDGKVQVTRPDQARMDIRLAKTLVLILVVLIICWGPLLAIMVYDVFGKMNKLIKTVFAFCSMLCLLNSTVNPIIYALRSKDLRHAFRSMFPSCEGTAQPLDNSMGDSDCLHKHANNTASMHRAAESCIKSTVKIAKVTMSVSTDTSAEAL
Chain of CB1 (P47746 whole entry): as the sequence (P20272 whole entry) above, with E95D counted along it
T2 sequence (E2RKA3 1-360): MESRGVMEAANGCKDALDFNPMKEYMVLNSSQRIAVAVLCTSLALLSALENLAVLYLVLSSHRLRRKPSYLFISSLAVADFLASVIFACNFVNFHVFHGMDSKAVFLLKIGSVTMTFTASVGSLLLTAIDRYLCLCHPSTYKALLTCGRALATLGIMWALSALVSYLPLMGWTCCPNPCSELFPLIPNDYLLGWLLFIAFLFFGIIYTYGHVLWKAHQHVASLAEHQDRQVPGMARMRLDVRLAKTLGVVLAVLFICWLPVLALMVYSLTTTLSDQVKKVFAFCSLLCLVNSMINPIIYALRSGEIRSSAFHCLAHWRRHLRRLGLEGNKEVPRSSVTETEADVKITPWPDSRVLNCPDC

CCCCC/C=C\C/C=C\C/C=C\C/C=C\CCCC(=O)NCCCl [arachidonyl-2-chloroethylamide]
Effect on pain [1]: reduces pain

CN1CCCCC1Cn1cc(C(=O)c2cc([N+](=O)[O-])ccc2I)c2ccccc21 (centres unmarked) [AM1241]
Hyperalgesia in carrageenan, capsaicin, and formalin models [2]: suppresses hyperalgesia
Tactile and thermal hypersensitivity [3]: reverses tactile and thermal hypersensitivity

CC(C)(C)[C@@H](CO)NC(=O)c1nn(-c2c[n+]([O-])ccn2)c2c1C[C@@H]1C[C@H]21 [Compound 699, (1aS,5aS)-2-(4-Oxy-pyrazin-2-yl)-1a,2,5,5a-tetrahydro-1H-2,3-diaza-cyclopropa[a]pentalene-4-carboxylic acid ((S)-1-hydroxymethyl-2,2-dimethyl-propyl)-amide]
Kind of activity at the CB2 receptor [4]: full agonist
EC50 [5]: 6 to 8 nM
Efficacy on writhing behavior [6]: efficacious
EC50 [7]: 6 to 8 nM
Analgesic efficacy (tactile allodynia, 50% withdrawal threshold) [8]: robust and sustained analgesic efficacy over 6 hours
Interaction with recombinant human CB1 receptors [9]: did not interact
Response (VMR) in rats with healthy colons ([10]; 30 mg/kg oral gavage twice daily for five days): without changing response
Colonic hypersensitivity, dose dependence ([10]; 10 and 30 mg/kg oral gavage twice daily, rats with TNBS-induced colitis): reducing colonic hypersensitivity in a dose-dependent manner
Visceral pain response (VMR to colorectal distension), rats with TNBS-induced colitis ([10]; 10 or 30 mg/kg oral gavage twice daily for five days, FIG. 13): reduces the visceral pain response
Interaction with recombinant dog CB1 receptors [11]: did not interact
Interaction with recombinant rat CB1 receptors [12]: did not interact

CCCCCCC(C)(C)c1cc(O)c2c(c1)OC(C)(C)[C@@H]1CC=C(CO)C[C@@H]21 [HU-210]
Capsaicin-induced hyperalgesia and allodynia [13]: attenuates capsaicin-induced hyperalgesia and allodynia

CONC(=O)[C@@H](NC(=O)c1nn(-c2c[n+]([O-])ccn2)c2c1C[C@H]1C[C@@H]21)C(C)(C)C [Compound 755, (1aR,5aR)-2-(4-Oxy-pyrazin-2-yl)-1a,2,5,5a-tetrahydro-1H-2,3-diaza-cyclopropa[a]pentalene-4-carboxylic acid ((S)-1-methoxycarbamoyl-2,2-dimethyl-propyl)-amide]
Ki [14]: 3.8 nM
Ki [15]: 1200 nM

Reference: patent publication US12201633B2, “Compounds and methods for treatment of visceral pain” (Arena Pharmaceuticals, Inc., priority 2017, dated 2025)
